{"source": "patent US9273043B2", "about": "“TRPV1 antagonists including dihydroxy substituent and uses thereof” (Purdue Pharma L.P., priority 2011, dated 2016)", "key": {"[1]": {"system": "neuropathic mechanical hyperalgesia after partial sciatic nerve ligation", "assay": "Seltzer model (partial sciatic nerve ligation) of neuropathic pain, paw withdrawal threshold", "format": "in vivo, rat", "conditions": "for % Reversal [mean ± SEM]: rat", "procedure": "In the Seltzer model, the partial sciatic nerve ligation model of neuropathic pain was used to produce neuropathic hyperalgesia in rats (Seltzer et al., “A Novel Behavioral Model of Neuropathic Pain Disorders Produced in Rats by Partial Sciatic Nerve Injury,” Pain 43:205-218 (1990)). Partial ligation of the left sciatic nerve was performed under isoflurane/O2 inhalation anaesthesia. Following induction of anesthesia, the left thigh of the male, 6-7 week old Jcl:SD rat was shaved. The sciatic nerve was exposed at high thigh level through a small incision and was carefully cleared of surrounding connective tissues at a site near the trocanther just distal to the point at which the posterior biceps semitendinosus nerve branches off of the common sciatic nerve. A 7-0 silk suture was inserted into the nerve with a ⅜ curved, reversed-cutting mini-needle and tightly ligated so that the dorsal ⅓ to ½ of the nerve thickness was held within the ligature. The wound was closed with a single muscle suture (4-0 nylon (Vicryl)) and vetbond tissue glue. The wound area was then dusted with antibiotic powder. Sham treatment involved an identical surgical procedure except that the sciatic nerve was not manipulated or ligated.\nFollowing surgery, animals were weighed and placed on a warm pad until they recovered from anesthesia. Animals were then returned to their home cages until behavioral testing began. The animal was assessed for response to noxious mechanical stimuli by determining PWT for the rear paw of the animal, as described below, prior to surgery (baseline), then immediately prior to and 1, 3, 5, 7, and 24 hours after oral drug-in-vehicle administration (for day 1). Thus, the 24 hour time point was the start of the next day when drug-in-vehicle was again orally administered (24 hours after the prior administration). On days 2 and 3, PWT response was determined 1, 3, and 24 hours thereafter. Percentage reversal of neuropathic hyperalgesia at each of the specified times after administration was defined as: […]\nAdditionally, 10 mg/kg of pregabalin (Kemprotec, Ltd., Middlesbrough, UK), an anticonvulsant accepted for relief of particular neuropathic pain, in vehicle and the vehicle alone (0.5% weight/volume methylcellulose (400cP, Wako Pure Chemical Industries, Ltd.)/aqueous solution) were orally administered as controls. […] Ten rats that underwent partial ligation of the left sciatic nerve were used for each treatment group. Dunnett's test was conducted for the % reversal; values with p<0.05 were considered to be statistically significant.\nAdditionally, as a control the rats underwent sham surgery in which an identical surgical procedure was followed with regard to the right thigh but the sciatic nerve was neither manipulated nor ligated.\nResponse to Mechanical Stimuli as an Assessment of Mechanical Hyperalgesia: The paw pressure assay was used to assess mechanical hyperalgesia. […] Biochem. and Behavior 31:451-455 (1988). The maximum weight that could be applied to the hind paw was set at 250 g and the end point was taken as complete withdrawal of the paw. PWT was determined once for each rat at each time point and either only the affected (ipsilateral) paw was tested, or both the ipsilateral and contralateral (non-injured) paw were tested."}, "[2]": {"system": "MIA-induced osteoarthritis pain", "assay": "MIA-induced osteoarthritis model, weight bearing difference (WBD) test", "format": "in vivo", "conditions": "rat MIA, oral 3 mg/kg", "from_the_text": "Osteoarthritis Pain: To assess the actions of a Compound of Formula (I) for the treatment or prevention of osteoarthritis pain, the rat monosodium iodo-acetate (MIA, i.e., sodium 2-iodoacetate) induced osteoarthritis model was used. Intra-articular injection of MIA causes joint degeneration characterized by osteolysis and swelling, with displacement of the patella, and reductions in bone mineral content and bone mineral density (Pomonis et al., “Development and pharmacological characterization of a rat model of osteoarthritis pain,” Pain 114: 339-346 (2005)). Under isoflurane anaesthesia, an intra-articular injection of 2 mg of MIA (Sigma-Aldrich) in 50 μl of saline was administered through the infrapatellar ligament of the knee joint of the right hind leg of the male, 6 week old Crl:CD(SD) rats. Control rats received an intra-articular injection of 50 μl of saline into the knee joint of the right hind leg. The left knee joint of all rats was untreated. […] Thus, in the assessment for osteoarthritis pain relief through gripping capability determinations, the 24 hour time point was the start of the next day when drug-in-vehicle was again orally administered (24 hours after the prior administration) for certain dosages. […] Weight Bearing Difference Test as an Assessment of Osteoarthritis Related Pain: The weight bearing difference test provides an accepted assessment of the efficacy of clinically useful analgesic drugs with respect of osteoarthritis related pain (see Pomonis et al. (2005)). WBD was assessed using a Linton Incapacitance Tester (Linton Instrumentation, Norfolk, UK). Rats were placed on the apparatus so that they were standing on their hind legs, and allowed to acclimate to the apparatus. When stationary, the weight born on each leg was measured over a 3s period. Three readings were taken for each rat at each time point; the average of the three readings was used for data analysis. WBD was expressed as “% WR”, i.e., the percentage of weight born on the MIA-injected right hind leg, using the following formula: [formula] where WR is the weight on the right hind leg and WL is the weight on the left (untreated) hind leg. […] The “% WRR”, i.e., the percentage reversal of the % WR impediment occurring post-MIA injection, was determined for each dosage at each time point using the following formula: [formula] where (% WR)Post-Drug is the % WR determined at each post-oral-administration time-point for each dose of each administered substance, (% WR)Pre-Drug is the % WR determined pre-oral-administration of each administered substance, and (% WR)Control Rat is the % WR determined for control rats (receiving the saline injection into the right hind leg knee joint). With the exception of the controls (i.e., celecoxib, vehicle) where the student's t-test was used, Dunnett's test was conducted for the % WRR."}, "[3]": {"system": "MIA-induced osteoarthritis pain", "assay": "MIA-induced osteoarthritis model, grip force test", "format": "in vivo, rat", "conditions": "for % GFR [mean]: rat MIA, grip force, oral 3 mg/kg", "from_the_text": "Osteoarthritis Pain: To assess the actions of a Compound of Formula (I) for the treatment or prevention of osteoarthritis pain, the rat monosodium iodo-acetate (MIA, i.e., sodium 2-iodoacetate) induced osteoarthritis model was used. Intra-articular injection of MIA causes joint degeneration characterized by osteolysis and swelling, with displacement of the patella, and reductions in bone mineral content and bone mineral density (Pomonis et al., “Development and pharmacological characterization of a rat model of osteoarthritis pain,” Pain 114: 339-346 (2005)). Under isoflurane anaesthesia, an intra-articular injection of 2 mg of MIA (Sigma-Aldrich) in 50 μl of saline was administered through the infrapatellar ligament of the knee joint of the right hind leg of the male, 6 week old Crl:CD(SD) rats. Control rats received an intra-articular injection of 50 μl of saline into the knee joint of the right hind leg. The left knee joint of all rats was untreated. Two weeks after MIA injection, rats were assessed for osteoarthritis pain related-behaviors immediately prior to and 1, 3, 5, 7, and 24 hours after oral drug-in-vehicle administration (for day 1) by determining their weight-bearing capabilities, via the weight bearing difference (WBD) test, and their gripping capabilities, via the grip force test, each as described below. Thus, in the assessment for osteoarthritis pain relief through gripping capability determinations, the 24 hour time point was the start of the next day when drug-in-vehicle was again orally administered (24 hours after the prior administration) for certain dosages. On days 2, 3, and 4, gripping capability response was determined 3 and 24 hours thereafter.\nThe grip force (GF) of the hind legs was assessed using a Animal Grip Strength System (San Diego Instruments, San Diego, Calif.). Rats were gently restrained and allowed to grasp the wire mesh strain gauge with their hind legs. The animals were then moved in a rostral-caudal direction until they let go of the gauge. The force (in g) at which the rat let go was recorded. Each animal was tested twice at approximately 3-10 minute intervals at each time point and the average of the two readings was used for the GF in data analysis.\nGrip force, normalized to account for the weight of each animal, was expressed as “GF/B”, i.e., the ratio of GF to body weight, where GF is the grip force in grams and B is the body weight of the animal in kg. The “% GFR”, i.e., the percentage reversal of the (normalized) grip force impediment occurring post-MIA injection, was determined for each dosage at each time point using the following formula:\n[formula] where (GF/B)Drug is the GF/B determined at each post-oral-administration time-point for each dose of each substance administered to MIA-injected animals, (GF/B)Vehicle is the GF/B determined at each post-oral-administration time-point for the vehicle control administered to MIA-injected animals, and (GF/B)Control Rat is the GF/B determined for control rats (saline-injected animals receiving orally-administered vehicle only). With the exception of the controls (i.e., celecoxib, vehicle) where the student's t-test was used, Dunnett's test was conducted for the % GFR. In either instance, values with p <0.05 were considered to be statistically significant."}}, "note": "Marks after values point to notes of the source that are not given here."}
{"compound": "CC(C)C[C@H](CN)CC(=O)O", "note": "[pregabalin, reference compound]", "values": [{"measurement": "maximum analgesic efficacy relative to the Example 10 product at 10 mg/kg", "setting": "[1]; 24.73% reversal (10 mg/kg, 3 h, day 1) as share of the 34.17% reversal of the product at 10 mg/kg", "value": "about 72%"}, {"measurement": "% Reversal [mean ± SEM]", "setting": "[1]; pregabalin control 10 mg/kg oral once daily, 1 hours (day 2) after administration", "value": "16.74 ± 4.23", "unit": "%"}, {"measurement": "% Reversal [mean ± SEM]", "setting": "[1]; pregabalin control 10 mg/kg oral once daily, 1 hours (day 3) after administration", "value": "17.16 ± 6.64", "unit": "%"}, {"measurement": "% Reversal [mean ± SEM]", "setting": "[1]; pregabalin control 10 mg/kg oral once daily, 3 hours (day 2) after administration", "value": "23.21 ± 2.30", "unit": "%"}, {"measurement": "% Reversal [mean ± SEM]", "setting": "[1]; pregabalin control 10 mg/kg oral once daily, 3 hours (day 3) after administration", "value": "26.56 ± 4.95", "unit": "%"}, {"measurement": "% Reversal [mean ± SEM]", "setting": "[1]; pregabalin control 10 mg/kg oral once daily, 24 hours (0 hrs day 2) after administration", "value": "−2.84 ± 4.74", "unit": "%"}, {"measurement": "% Reversal [mean ± SEM]", "setting": "[1]; pregabalin control 10 mg/kg oral once daily, 24 hours (0 hrs day 3) after administration", "value": "1.70 ± 4.29", "unit": "%"}, {"measurement": "% Reversal [mean ± SEM]", "setting": "[1]; pregabalin control 10 mg/kg oral once daily, 24 hours (0 hrs day 4) after administration", "value": "−3.67 ± 2.66", "unit": "%"}, {"measurement": "% Reversal [mean ± SEM]", "setting": "[1]; pregabalin control 10 mg/kg oral, 1 hours (day 1) after administration", "value": "24.05 ± 6.46", "unit": "%"}, {"measurement": "% Reversal [mean ± SEM]", "setting": "[1]; pregabalin control 10 mg/kg oral, 3 hours (day 1) after administration", "value": "24.73 ± 4.12", "unit": "%"}, {"measurement": "% Reversal [mean ± SEM]", "setting": "[1]; pregabalin control 10 mg/kg oral, 5 hours (day 1) after administration", "value": "19.97 ± 4.79", "unit": "%"}, {"measurement": "% Reversal [mean ± SEM]", "setting": "[1]; pregabalin control 10 mg/kg oral, 7 hours (day 1) after administration", "value": "11.89 ± 3.16", "unit": "%"}, {"measurement": "% reversal of neuropathic hyperalgesia", "setting": "[1]; rat Seltzer model, oral 10 mg/kg, 3 h after day 1 administration (maximum)", "value": 24.73, "unit": "%"}]}
{"compound": "Cc1ccc(-c2cc(C(F)(F)F)nn2-c2ccc(S(N)(=O)=O)cc2)cc1", "note": "[Celecoxib, celecoxib, reference compound]", "values": [{"measurement": "% WRR [mean]", "setting": "[2]; 1 h after administration", "value": "10.2^† %"}, {"measurement": "% WRR [mean]", "setting": "[2]; 1 h after administration, listed as celecoxib", "value": 10.2, "unit": "%"}, {"measurement": "% WRR [mean]", "setting": "[2]; 3 h after administration", "value": "27.8^†† %"}, {"measurement": "% WRR [mean]", "setting": "[2]; 3 h after administration, listed as celecoxib", "value": 27.8, "unit": "%"}, {"measurement": "% WRR [mean]", "setting": "[2]; 5 h after administration", "value": "14.1^†† %"}, {"measurement": "% WRR [mean]", "setting": "[2]; 5 h after administration, listed as celecoxib", "value": 14.1, "unit": "%"}, {"measurement": "% WRR [mean]", "setting": "[2]; 7 h after administration", "value": "6.0^† %"}, {"measurement": "% WRR [mean]", "setting": "[2]; 7 h after administration, listed as celecoxib", "value": 6.0, "unit": "%"}, {"measurement": "% WRR [mean]", "setting": "[2]; 24 h after administration", "value": 2.0, "unit": "%"}, {"measurement": "maximum analgesic efficacy relative to the Example 10 product at 1 mg/kg", "setting": "[3]; 30.0% reversal (3 mg/kg, 3 h, day 1) as share of the 45.2% reversal of the product at 1 mg/kg", "value": "about 66.4%"}, {"measurement": "maximum analgesic efficacy relative to the Example 10 product at 3 mg/kg", "setting": "[3]; 30.0% reversal (3 mg/kg, 3 h, day 1) as share of the 53.6% reversal of the product at 3 mg/kg", "value": "~56.0", "unit": "%"}, {"measurement": "% GFR [mean]", "setting": "[3]; 1 h (day 1)", "value": "22.6^†† %"}, {"measurement": "% GFR [mean]", "setting": "[3]; 3 h (day 1)", "value": "30.0^†† %"}, {"measurement": "% GFR [mean]", "setting": "[3]; 3 h (day 1), listed as celecoxib", "value": 30.0, "unit": "%"}, {"measurement": "% GFR [mean]", "setting": "[3]; 5 h (day 1)", "value": "20.9^†† %"}, {"measurement": "% GFR [mean]", "setting": "[3]; 7 h (day 1)", "value": 3.6, "unit": "%"}, {"measurement": "% GFR [mean]", "setting": "[3]; 24 h after day 1 dose (0 hrs day 2)", "value": "−3.6", "unit": "%"}]}
